Source: patent US8158647B2, “Substituted pyrrolopyridines and pyrazolopyridines as kinase modulators” (SGX Pharmaceuticals, Inc., priority 2007, dated 2012)

Columns and labels:
[1] = biological target: T1, purified and unphosphorylated T315I Abl kinase domain (ABL_T315I_0P) (Mus musculus, UniProt P00520, T315I); assay: c-Abl T315I (unphosphorylated kinase domain) pyruvate kinase/lactate dehydrogenase coupled enzyme assay; format: biochemical; details: 10 μM ATP
T1 construct: The c-Abl T3151 KD (kinase domain) was purified as follows; Met-Ser-Leu (vector-derived residues) (N); made in house; host or cells: E. coli BL21(DE3) strains (Codon+RIL, or pSA0145 for the lambda phosphatase co-expression plasmid)
T1 sequence (P00520 242-493 T315I limits assumed): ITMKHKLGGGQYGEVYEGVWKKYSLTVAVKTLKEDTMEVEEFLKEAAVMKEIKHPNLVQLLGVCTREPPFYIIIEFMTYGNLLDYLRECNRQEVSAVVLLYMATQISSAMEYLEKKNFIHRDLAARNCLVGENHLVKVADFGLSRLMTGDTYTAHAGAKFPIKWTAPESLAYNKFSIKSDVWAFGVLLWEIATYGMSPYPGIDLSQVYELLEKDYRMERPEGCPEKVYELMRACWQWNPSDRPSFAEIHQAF
Text: Although the first of these examples uses the kinase domain of a mutant form of Abl T315I (“Abl T315I KD”), the kinase assays may use various forms of mutant and wild type enzymes, including, for example, the entire protein, the kinase domain, or a portion thereof (e.g. Abl Y393F). The kinases used in the assays may also be of varying phosphorylation states. In the c-Abl example, a mutant kinase at a zero phosphorylation state was used.
c-Abl Pyruvate Kinase/Lactate Dehydrogenase Coupled Enzyme Assay
In the c-Abl Pyruvate Kinase (PK)/Lactate Dehydrogenase (LDH) Coupled Assay the protein kinase dependant phosphorylation of a substrate peptide was coupled to the oxidation of NADH. The oxidation of NADH to NAD+ was detected by monitoring a decrease in absorbance at 340 nm.
Materials: Abl substrate peptide=EAIYAAPFAKKK-OH (SEQ ID NO: 1) (Biopeptide, San Diego, Calif.); […]NADH (Sigma Cat#N-8129, FW=709.4); 2M MgCl2; 1M HEPES buffer, pH 7.5; Phosphoenolpyruvate (PEP) (Sigma Cat#P-7002, FW=234); Lactate dehydrogenase (LDH) (Worthington Biochemical Cat#2756); Pyruvate Kinase (PK) (Sigma Cat#P-9136); ATP (Sigma Cat#A-3377, FW=551); Greiner 384-well UV star plate; and purified and unphosphorylated T3151 Abl kinase domain.
Stock Solutions: 10 mM NADH (7.09 mg/ml in miliQH2O) made fresh daily; 10 mM Abl substrate peptide (13.4 mg/ml in miliQH2O) stored at −20° C.; 100 mM HEPES buffer, pH 7.5 (5 ml 1M stock+45 ml miliQH2O); 100mM MgCl2 (5 ml 2M MgCl2+95 ml dH2O); 100 mM PEP (23.4 mg/ml in dH2O) stored at −20° C.; 10mM ATP (5.51 mg/ml in dH2O) stored at −20° C. (diluted 50 μl into total of 10 ml miliQH2O daily=50 μM ATP working stock); 1000 U/ml PK (U/mg varies with lot) flash-frozen under liquid N2 and stored at −80° C.; and 1000 U/ml LDH (U/mg varies with lot) flash-frozen under liquid N2 and stored at −80° C.
Standard Assay Setup for 384-well format (50 μl reaction): 300 μM NADH; 10 mM MgCl2; 2 mM PEP; 45 U/ml PK; 60 U/ml LDH; 200 μM Abl substrate peptide; 2.5 μl test compound (in DMSO); 2 μg/ml Abl kinase domain; 10 μM ATP; 100 mM HEPES buffer. Positive controls contained DMSO with no test compound. Negative controls contained 5 μl of 0.5M EDTA (50 mM in the assay). The dephosphorylated form of the c-Abl T315I mutant was used in the biochemical screening assays. The kinase reaction was initiated at time t=0 by the addition of ATP.
Activity was measured by following the time-dependent loss of NADH by absorbance spectroscopy at 340 nm. The linear portion of the resulting progress curve was then analyzed by linear regression to get the activity in absorbance units/time, reported as the slope of that best fit line (moles/unit time can be calculated from using molar extinction coefficient for NADH at 340 nm, 6250M^−1 cm^−1).
Screening data was evaluated using the equation: Z′=1-[3*(σ++σ−)/|μ+−μ−|] (Zhang, et al., 1999 J Biomol Screening 4(2) 67-73), where μ denotes the mean and σ the standard deviation. The subscript designates positive or negative controls. The Z′ score for a robust screening assay should be ≧0.50. The typical threshold=μ+−3*σ+−. Any value that falls below the threshold was designated a “hit”.
Dose response was analyzed using the equation: y=min+{(max−min)/(1+10^[compound]−logIC50)}, where y is the observed initial slope, max=the slope in the absence of inhibitor, min=the slope at infinite inhibitor, and the IC50 is the [compound] that corresponds to ½ the total observed amplitude (Amplitude=max−min).
To measure modulation, activation, or inhibition of Abl KD, a test compound was added to the assay at a range of concentrations. Inhibitors may inhibit Abl KD activity at an IC50 in the micromolar range, the nanomolar range, or, for example, in the subnanomolar range.
An open-reading frame for c-Abl was amplified from a Mus musculus (mouse) cDNA library prepared from freshly harvested mouse liver using a commercially available kit (Invitrogen) by PCR using the following primers: […]
The c-Abl T3151 KD (kinase domain) was purified as follows. […]

ABL P210WT BAF3 cells = biological target: T2, ABL P210WT BAF3 cells (Homo sapiens, UniProt P00519); assay: 96-well XTT cell survival assay, BaF3 ABL P210WT; format: cell-based; details: ABL P210 WT, 72 hours, read-out: CELL BIO ABL P210WT BAF3 XTT (IC50)
T2 construct: ABL P210WT BAF3; fused on or other part: P11274 (Breakpoint cluster region protein)
Protocol: (§1) MV4-11 and THP cells were maintained in Iscove's Modified Dulbecco's Medium supplemented with 10% fetal bovine serum (FBS) and penicillin/streptomycin, Ba/F3 cells were maintained in RPMI 1640 supplemented with 10% FBS, penicillin/streptomycin and 5 ng/ml recombinant mouse IL-3.
(§2) Compounds were tested in the following assays in duplicate.
(§3) 96-well XTT assay: Cells (e.g. BaF3 315I, M3511, or E255K cells) were grown in growth media containing various concentrations of compounds (duplicates) on a 96-well plate for 72 hours at 37° C. The starting cell number was 5000-8000 cells per well and volume was 120 μl. At the end of the 72-hour incubation, 40 μl of XTT labeling mixture (50:1 solution of sodium 3′-[1-(phenylamino-carbonyl)-3,4-tetrazolium]-bis(4-methoxy-6-nitro) benzene sulfonic acid hydrate and Electron-coupling reagent: PMS (N-methyl dibenzopyrazine methyl sulfate) were added to each well of the plate. After an additional 2-6 hours of incubation at 37° C., the absorbance reading at 405 nm with background correction at 650 nm was measured with a spectrophotometer.

ABL T315I BAF3 cells = biological target: T3, ABL T315I BAF3 cells (Homo sapiens, UniProt P00519, T315I, cells depend on it); assay: 96-well XTT cell survival assay, BaF3 ABL T315I; format: cell-based; details: 72 hours, read-out: CELL BIO ABL T315I BAF3 XTT (IC50)
T3 construct: ABL T315I BAF3; fused on or other part: P11274 (Breakpoint cluster region protein)
Protocol: as §1, §2, §3

Structure (SMILES)	ABL_T315I_0P (IC50) [1]	GI50 (ABL P210WT BAF3 cells)	GI50 (ABL T315I BAF3 cells)
CNc1c(-c2cncc(C(O)C(=O)N(C)C)c2)cnc2[nH]cc(-c3ccccc3OC)c12 (stereo not drawn) [2-Hydroxy-2-{5-[3-(2-methoxy-phenyl)-4-methylamino-1H-pyrrolo[2,3-b]pyridin-5-yl]-pyridin-3-yl}-N,N-dimethyl-acetamide]	D (<0.01 μM)	100 to 1000 nM	100 to 1000 nM
COc1ccccc1-c1c[nH]c2ncc(-c3cncc(C(O)C(=O)N(C)C)c3)c(SC)c12 (stereo not drawn) [2-Hydroxy-2-{5-[3-(2-methoxy-phenyl)-4-methylsulfanyl-1H-pyrrolo[2,3-b]pyridin-5-yl]-pyridin-3-yl}-N,N-dimethyl-acetamide]	D (<0.01 μM)	100 to 1000 nM	10 to 100 nM
COc1ccccc1-c1c[nH]c2ncc(-c3cncc(C(O)C(=O)N(C)C)c3)c(C(F)(F)F)c12 (stereo not drawn) [2-Hydroxy-2-{5-[3-(2-methoxy-phenyl)-4-trifluoromethyl-1H-pyrrolo[2,3-b]pyridin-5-yl]-pyridin-3-yl}-N,N-dimethyl-acetamide]	D (<0.01 μM)	10 to 100 nM	10 to 100 nM
CN(C)C(=O)C(O)c1cncc(-c2cnc3[nH]cc(-c4ccccc4)c3c2Cl)c1 (stereo not drawn) [2-[5-(4-Chloro-3-phenyl-1H-pyrrolo[2,3-b]pyridin-5-yl)-pyridin-3-yl]-2-hydroxy-N,N-dimethyl-acetamide]	D (<0.01 μM)	100 to 1000 nM	100 to 1000 nM
CN(C)C(=O)Cc1cncc(-c2cnc3[nH]cc(-c4cccc(F)c4F)c3c2Cl)c1 [2-{5-[4-Chloro-3-(2,3-difluoro-phenyl)-1H-pyrrolo[2,3-b]pyridin-5-yl]-pyridin-3-yl}-N,N-dimethyl-acetamide]	D (<0.01 μM)	100 to 1000 nM	100 to 1000 nM
CN(C)C(=O)C(O)c1cncc(-c2cnc3[nH]cc(-c4ccccc4Cl)c3c2Cl)c1 (stereo not drawn) [2-{5-[4-Chloro-3-(2-chloro-phenyl)-1H-pyrrolo[2,3-b]pyridin-5-yl]-pyridin-3-yl}-2-hydroxy-N,N-dimethyl-acetamide]	D (<0.01 μM)	100 to 1000 nM	100 to 1000 nM
COc1ccccc1-c1c[nH]c2ncc(-c3cncc(C(O)C(=O)N(C)C)c3)c(Cl)c12 (stereo not drawn) [2-{5-[4-Chloro-3-(2-methoxy-phenyl)-1H-pyrrolo[2,3-b]pyridin-5-yl]-pyridin-3-yl}-2-hydroxy-N,N-dimethyl-acetamide]	D (<0.01 μM)	< 10 nM	< 10 nM

Further lines, with some results ahead:

ABL_T315I_0P (IC50) [1]	Structure (SMILES)	GI50 (ABL P210WT BAF3 cells)	GI50 (ABL T315I BAF3 cells)
C (0.1-0.01 μM)	COc1ccccc1-c1c[nH]c2ncc(-c3cncc(C(O)C(=O)N(C)C)c3)c(O)c12 (stereo not drawn) [2-Hydroxy-2-{5-[4-hydroxy-3-(2-methoxy-phenyl)-1H-pyrrolo[2,3-b]pyridin-5-yl]-pyridin-3-yl}-N,N-dimethyl-acetamide]	> 1000 nM	> 1000 nM
D (<0.01 μM)	COc1ccccc1-c1c[nH]c2ncc(-c3cncc(C(O)C(=O)N(C)C)c3)c(OC)c12 (stereo not drawn) [2-Hydroxy-2-{5-[4-methoxy-3-(2-methoxy-phenyl)-1H-pyrrolo[2,3-b]pyridin-5-yl]-pyridin-3-yl}-N,N-dimethyl-acetamide]	10 to 100 nM	10 to 100 nM
D (<0.01 μM)	CN(C)C(=O)Cc1cncc(-c2cnc3[nH]cc(-c4ccccc4)c3c2Cl)c1 [2-[5-(4-Chloro-3-phenyl-1H-pyrrolo[2,3-b]pyridin-5-yl)-pyridin-3-yl]-N,N-dimethyl-acetamide]	> 1000 nM	> 1000 nM
D (<0.01 μM)	COc1ccccc1-c1c[nH]c2ncc(-c3cncc(C(O)C(=O)N(C)C)c3)c(N)c12 (stereo not drawn) [2-{5-[4-Amino-3-(2-methoxy-phenyl)-1H-pyrrolo[2,3-b]pyridin-5-yl]-pyridin-3-yl}-2-hydroxy-N,N-dimethyl-acetamide]	100 to 1000 nM	100 to 1000 nM
D (<0.01 μM)	CN(C)C(=O)C(O)c1cncc(-c2cnc3[nH]cc(-c4cccc(F)c4F)c3c2Cl)c1 (stereo not drawn) [2-{5-[4-Chloro-3-(2,3-difluoro-phenyl)-1H-pyrrolo[2,3-b]pyridin-5-yl]-pyridin-3-yl}-2-hydroxy-N,N-dimethyl-acetamide]	100 to 1000 nM	100 to 1000 nM
C (0.1-0.01 μM)	CN(C)C(=O)C(=O)c1cncc(-c2cnc3[nH]cc(-c4cccc(F)c4F)c3c2Cl)c1 [2-{5-[4-Chloro-3-(2,3-difluoro-phenyl)-1H-pyrrolo[2,3-b]pyridin-5-yl]-pyridin-3-yl}-N,N-dimethyl-2-oxo-acetamide]	> 1000 nM	> 1000 nM
D (<0.01 μM)	CN(C)C(=O)C(O)c1cncc(-c2cnc3[nH]cc(-c4ccccc4F)c3c2Cl)c1 (stereo not drawn) [2-{5-[4-Chloro-3-(2-fluoro-phenyl)-1H-pyrrolo[2,3-b]pyridin-5-yl]-pyridin-3-yl}-2-hydroxy-N,N-dimethyl-acetamide]	100 to 1000 nM	100 to 1000 nM
C (0.1-0.01 μM)	COc1ccccc1-c1n[nH]c2ncc(-c3cncc(C(O)C(=O)N(C)C)c3)c(Cl)c12 (stereo not drawn) [2-{5-[4-Chloro-3-(2-methoxy-phenyl)-1H-pyrazolo[3,4-b]pyridin-5-yl]-pyridin-3-yl}-2-hydroxy-N,N-dimethyl-acetamide]	100 to 1000 nM	100 to 1000 nM
